Reference: patent publication US5248691A, “Furanoindolines” (Eli Lilly and Company, priority 1992, dated 1993)
In brackets after ≈: the same amount, converted by molar mass. Like-named read-outs stand apart in the source and are kept apart here.

Assays:
[1] = system: human squamous cell lung carcinoma (T222); experiment: In vitro cytotoxicity, [3H]leucine uptake, T222 cells; format: cell-based; conditions: for IC50: read-out: IC50 (50% cytotoxic concentration)
Experimental: (§1) The cytotoxicities of 4-12 were determined by incubation (48 hours) of drug with a human squamous cell lung carcinoma (T222) and percent inhibition determined by measurement of [^3 H]leucine uptake. T222 (Masui, et al. Cancer, 44(3): 1002-1007, 1984) human squamous carcinoma and P3/UCLA (Varki, et al., Cancer Res. 44: 681-687, 1984) human lung carcinoma cells were grown in DMEM medium supplemented with 10% fetal bovine serum and 50 ug/mL gentamicin using standard tissue culture techniques. 1×10^4 target cells were distributed in each well of 96 well tissue culture plates and incubated in leucine deficient medium (leucine free DMEM plus 13 ug/mL L-leucine, 29.2 ug/mL L glutamine, 50 ug/mL gentamicin and 10% dialyzed fetal calf serum) for 16 hours at 37° C. in 5% CO2. The medium was then removed aseptically and compound dilutions were added in 200 ul of leucine deficient medium. Following an additional 48 hour incubation, 4 uCi ^3 H-leucine (NEN, Boston, Mass.) were added to each well and the plates were returned to the incubator for 24 hours. Radioactivity incorporated into macromolecules was determined using an automated cell harvester and liquid scintillation techniques. Data were evaluated as percent reduction in incorporation of radioactivity relative to controls incubated in medium without compound to yield an 50% cytotoxic concentration (IC50).

[2] = system: human lung adenocarcinoma (P3/UCLA); experiment: In vitro cytotoxicity, similar protocol, P3/UCLA cells; format: cell-based
Experimental: as §1

T222 tumor = experiment: Nude mouse xenograft, T222 tumor burden (i.v.); format: in vivo, nude mice; parameters: inhibition of growth of tumors (in words): dose or concentration left out as unconfirmed; conditions: for Number of Deaths/Number of Mice / Percent Inhibition of Tumor Growth: days 3, 5 and 7
Experimental: Prior to each xenograft experiment, cells were collected by treatment with Trypsin/EDTA (Gibco, Life Technologies, Grand Island, N.Y.) and washed with supplemented DMEM and finally suspended in Hanks balanced salt solution. 1×10^7 cells were injected s.c. into the flank of young adult female nude mice (Charles River Breeding Laboratories, Boston, Mass.). The mice were treated by i.v. injection in the tail vein at various time points. Tumor measurements were taken in two dimensions and converted to an estimate of mass using the formula [(length) (width^2)/2] as described by Geran, et al.. Cancer Chemother. Rep., 3:1-103, 1972. Control groups contained 10 mice with test groups containing 5 mice each. The Student test was used to evaluate differences between mean tumor masses.

[3] = system: minor groove of double stranded DNA; conditions: cited from earlier work
[4] = single intravenous subtherapeutic dose; healthy mice; cited from earlier work
[5] = T222 human squamous cell lung carcinoma, 48 hours incubation, [3H]leucine uptake

Cc1coc2c(O)cc3c(c12)C(CCl)CN3C(=O)c1cc2cc(NC(=O)c3cc4ccccc4[nH]3)ccc2[nH]1 (single isomer, unassigned; (+)) [Compound 4]
IC50 [1, 5]: 0.17 ng/mL (≈ 0.315 nM) | IC50 [2]: 0.27 ng/mL (≈ 0.501 nM) | Number of Deaths/Number of Mice (T222 tumor; 0.05 mg/kg i.v.): 0/5 | Percent Inhibition of Tumor Growth (T222 tumor; 0.05 mg/kg i.v.): 68% | Number of Deaths/Number of Mice (T222 tumor; 0.1 mg/kg i.v.): 0/5 | Percent Inhibition of Tumor Growth (T222 tumor; 0.1 mg/kg i.v.): 73% | Number of Deaths/Number of Mice (T222 tumor; 0.2 mg/kg i.v.): 1/5 | Percent Inhibition of Tumor Growth (T222 tumor; 0.2 mg/kg i.v.): 85% | Number of Deaths/Number of Mice (T222 tumor; 0.4 mg/kg i.v.): 5/5 | inhibition of growth of tumors (in words) (T222 tumor; intravenously on days 3, 5 and 7, T222 burden injected s.c. at day 0): inhibited the growth of tumors

Cc1coc2c(O)cc3c(c12)C(CCl)CN3C(=O)c1cc2cc(NC(=O)c3cc4ccccc4o3)ccc2[nH]1 (single isomer, unassigned; (+)) [Compound 5]
IC50 [1, 5]: 0.15 ng/mL (≈ 0.278 nM)

Cc1coc2c(O)cc3c(c12)C(CCl)CN3C(=O)c1cc2cc(NC(=O)c3cc4ccccc4s3)ccc2[nH]1 (single isomer, unassigned; (+)) [Compound 6]
IC50 [1, 5]: 0.2 ng/mL (≈ 0.36 nM)

Cc1coc2c(O)cc3c(c12)C(CCl)CN3C(=O)c1cc2cc(NC(=O)c3cc4ccccc4[nH]3)ccc2o1 (single isomer, unassigned; (+)) [Compound 7]
IC50 [1, 5]: 0.23 ng/mL (≈ 0.426 nM)

Cc1coc2c(O)cc3c(c12)C(CCl)CN3C(=O)c1cc2cc(NC(=O)c3cc4ccccc4o3)ccc2o1 (single isomer, unassigned; (+)) [Compound 8]
IC50 [1, 5]: 0.37 ng/mL (≈ 0.684 nM)

Cc1coc2c(O)cc3c(c12)C(CCl)CN3C(=O)c1cc2cc(NC(=O)c3cc4ccccc4s3)ccc2o1 (single isomer, unassigned; (+)) [Compound 9]
IC50 [1, 5]: 0.56 ng/mL (≈ 1.01 nM)

Cc1coc2c(O)cc3c(c12)C(CCl)CN3C(=O)c1cc2cc(NC(=O)c3cc4ccccc4[nH]3)ccc2s1 (single isomer, unassigned; (+)) [Compound 10]
IC50 [1, 5]: 0.29 ng/mL (≈ 0.522 nM)

Cc1coc2c(O)cc3c(c12)C(CCl)CN3C(=O)c1cc2cc(NC(=O)c3cc4ccccc4o3)ccc2s1 (single isomer, unassigned; (+)) [Compound 11]
IC50 [1, 5]: 0.26 ng/mL (≈ 0.467 nM)

Cc1coc2c(O)cc3c(c12)C(CCl)CN3C(=O)c1cc2cc(NC(=O)c3cc4ccccc4s3)ccc2s1 (single isomer, unassigned; (+)) [Compound 12]
IC50 [1, 5]: 0.2 ng/mL (≈ 0.349 nM)

CCC1(O)CC2CN(CCc3c([nH]c4ccccc34)C(C(=O)OC)(c3cc4c(cc3OC)N(C)C3C(O)(C(=O)NN)C(O)C5(CC)C=CCN6CCC43C65)C2)C1 (stereo not shown) [4-desacetylvinblastine-3-carboxhydrazide, reference compound]
IC50 ([1]; Homo sapiens, T222, 48 h): 3 ng/mL (≈ 3.9 nM)

COc1c(O)c2c(c3cc(C(=O)N4CCc5c4c(O)c(OC)c4[nH]c(C(=O)N6CC7CC78C6=CC(=O)c6[nH]cc(C)c68)cc54)[nH]c13)CCN2C(N)=O (stereo not shown) [CC-1065]
DNA binding [3]: binds covalently to the minor groove of double stranded DNA | delayed deaths / hepatotoxicity [4]: led to delayed deaths of healthy mice as a result of the hepatotoxicity

Cc1coc2c(O)cc3c(c12)C(CCl)CN3C(=O)c1cc2cc(NC(=O)c3cc4ccccc4[nH]3)ccc2[nH]1 (stereo not drawn) [enantiomer of 4]
antineoplastic potency relative to 4 ([1]; T222 cell line, compared with 4): approximately ten fold less potent
